Measurements reported in patent publication US20140309172A1, “ICE INHIBITING COMPOUNDS AND USES THEREOF” (priority 2010, published 2014).

How the values were obtained:
[1] = Preliminary tests of blood-brain barrier penetration in animals; assay type: in vivo
[2] = test system: M17 cells overexpressing alpha-synuclein; assay: Cell viability of M17 cells overexpressing alpha-synuclein (LIVE/DEAD assay); assay type: cell-based, human
Excerpt: Humans have 28 calpain and caspase isozymes—a large but not impossible number to test. RNAi was used to knock down each of these in turn in a neuronal cell culture model of PD. It is a neuroblastoma cell line (BE(2)-M17) carrying a wild-type α-synuclein overexpressing vector. BE(2)-M17 is a clone of the SK-N-BE(2) cell line that was established in November of 1972 from a bone marrow biopsy taken from a child with neuroblastoma. Synuclein on its own is not toxic to these cells, but it is toxic when combined with an oxidative stress agent such as rotenone or menadione. Greater than 90% reduction of mRNA levels for each of the 29 protease genes was routinely achieved, and greater than 50% reduction in protein levels (typically, about 70% reduction) was routinely achieved.
A cell viability assay was performed using LIVE/DEAD (molecular probes) assay according to the manufacture instructions. As summarized in FIG. 10, both RNAi knockdown of caspase-1/ICE and treatment with the caspase-1/ICE inhibitor block synuclein fragment formation in nerve cells and should inhibit synuclein aggregation in neuronal cells derived from one or more mouse models of PD.

[3] = test system: M17 cells carrying empty pcDNA3 vector; assay: Cell viability of M17 cells with pcDNA3 empty vector in the presence of menadione; assay type: cell-based, human; settings: low concentrations of menadione, FIG. 8

SMILES: CC(C)(C)[C@H](NC(=O)c1ccc(N)c(Cl)c1)C(=O)N1CCC[C@H]1C(=O)N[C@H](C#N)CC(=O)O [NCGC00185682]
- BBB penetration [1]: low

SMILES: CC1=CC(=O)c2ccccc2C1=O [menadione]
- toxicity to M17 cells overexpressing a-synuclein ([2]; low concentrations of menadione, FIG. 8): toxic
- toxicity to M17 cells carrying empty pcDNA3 vector [3]: not toxic

SMILES: CCO[C@@H]1OC(=O)C[C@@H]1NC(=O)[C@@H]1CCCN1C(=O)[C@@H](NC(=O)c1ccc(N)c(Cl)c1)C(C)(C)C [VX-765]
- rescue from alpha-synuclein-induced toxicity (cell viability) ([2]; M17 cells overexpressing alpha-synuclein, FIG. 10): rescued
- BBB penetration [1]: low
